B1: ATP-binding cassette sub-family C member 2 (Rattus norvegicus) (protein)
chain: MDKFCNSTFWDLSLLESPEADLPLCFEQTVLVWIPLGFLWLLAPWQLYSVYRSRTKRSSITKFYLAKQVFVVFLLILAAIDLSLALTEDTGQATVPPVRYTNPILYLCTWLLVLAVQHSRQWCVRKNSWFLSLFWILSVLCGVFQFQTLIRALLKDSKSNMAYSYLFFVSYGFQIVLLILTAFSGPSDSTQTPSVTASFLSSITFSWYDRTVLKGYKHPLTLEDVWDIDEGFKTRSVTSKFEAAMTKDLQKARQAFQRRLQKSQRKPEATLHGLNKKQSQSQDVLVLEEAKKKSEKTTKDYPKSWLIKSLFKTFHVVILKSFILKLIHDLLVFLNPQLLKLLIGFVKSSNSYVWFGYICAILMFAVTLIQSFCLQSYFQHCFVLGMCVRTTVMSSIYKKALTLSNLARKQYTIGETVNLMSVDSQKLMDATNYMQLVWSSVIQITLSIFFLWRELGPSILAGVGVMVLLIPVNGVLATKIRNIQVQNMKNKDKRLKIMNEILSGIKILKYFAWEPSFQEQVQGIRKKELKNLLRFGQLQSLLIFILQITPILVSVVTFSVYVLVDSANVLNAEKAFTSITLFNILRFPLSMLPMVTSSILQASVSVDRLERYLGGDDLDTSAIRRVSNFDKAVKFSEASFTWDPDLEATIQDVNLDIKPGQLVAVVGTVGSGKSSLVSAMLGEMENVHGHITIQGSTAYVPQQSWIQNGTIKDNILFGSEYNEKKYQQVLKACALLPDLEILPGGDMAEIGEKGINLSGGQKQRVSLARAAYQDADIYILDDPLSAVDAHVGKHIFNKVVGPNGLLAGKTRIFVTHGIHFLPQVDEIVVLGKGTILEKGSYRDLLDKKGVFARNWKTFMKHSGPEGEATVNNDSEAEDDDDGLIPTMEEIPEDAASLAMRRENSLRRTLSRSSRSSSRRGKSLKNSLKIKNVNVLKEKEKEVEGQKLIKKEFVETGKVKFSIYLKYLQAVGWWSILFIILFYGLNNVAFIGSNLWLSAWTSDSDNLNGTNNSSSHRDMRIGVFGALGLAQGICLLISTLWSIYACRNASKALHGQLLTNILRAPMRFFDTTPTGRIVNRFSGDISTVDDLLPQTLRSWMMCFFGIAGTLVMICMATPVFAIIIIPLSILYISVQVFYVATSRQLRRLDSVTKSPIYSHFSETVTGLPIIRAFEHQQRFLAWNEKQIDINQKCVFSWITSNRWLAIRLELVGNLVVFCSALLLVIYRKTLTGDVVGFVLSNALNITQTLNWLVRMTSEAETNIVAVERISEYINVENEAPWVTDKRPPADWPRHGEIQFNNYQVRYRPELDLVLKGITCNIKSGEKVGVVGRTGAGKSSLTNCLFRILESAGGQIIIDGIDVASIGLHDLRERLTIIPQDPILFSGSLRMNLDPFNKYSDEEVWRALELAHLRSFVSGLQLGLLSEVTEGGDNLSIGQRQLLCLGRAVLRKSKILVLDEATAAVDLETDSLIQTTIRKEFSQCTVITIAHRLHTIMDSDKIMVLDNGKIVEYGSPEELLSNRGSFYLMAKEAGIENVNHTEL

Experiments:
[1] = biological target: ABCC2 (MRP2; ATP-binding cassette sub-family C member 2) (Rattus norvegicus, UniProt Q63120); assay: TP_TRANSPORTER: inhibition of Fluo-3 secretion into apical vacuoles (Fluo-3: 1 uM, PSC 833: 50 uM) in WIF-B cells; assay type: functional, cell-based, WIF-B cell; conditions: probe Fluo-3 (1 uM)
[2] = biological target: ATP-binding cassette sub-family C member 2 (Rattus norvegicus, UniProt Q63120); assay: TP_TRANSPORTER: inhibition of Fluo-3 uptake (Fluo-3: 4.4 uM, PSC 833: 10 uM) in bile canalicular membrane vesicles from Wistar rat; assay type: functional, cell membranes, Bile canalicular membrane vesicle
[3] = substrate: Cc1ccc(N(CC(=O)O)CC(=O)O)c(OCCOc2cc(-c3c4cc(Cl)c(=O)cc-4oc4cc(O)c(Cl)cc34)ccc2N(CC(=O)O)CC(=O)O)c1; assay: TP_TRANSPORTER: uptake in bile canalicular membrane vesicles from Wistar/TR- rat; assay type: functional, cell membranes, Bile canalicular membrane vesicle

Molecule	inhibition at 50 µM [1] [%]	Activity [2]	Km [3] [µM]
C/C=C/C[C@@H](C)C(=O)[C@H]1C(=O)N[C@@H](C(C)C)C(=O)N(C)CC(=O)N(C)[C@@H](CC(C)C)C(=O)N[C@@H](C(C)C)C(=O)N(C)[C@@H](CC(C)C)C(=O)N[C@@H](C)C(=O)N[C@H](C)C(=O)N(C)[C@@H](CC(C)C)C(=O)N(C)[C@@H](CC(C)C)C(=O)N(C)[C@@H](C(C)C)C(=O)N1C [VALSPODAR]	50	is not an inhibitor [-]	
B1			3.7

— ChEMBL document CHEMBL2074554, “Expression of the apical conjugate export pump, Mrp2, in the polarized hepatoma cell line, WIF-B” (Hepatology, 1998)
